Laboratory results reported in patent US10172914B2, “Combination” (Genesis Pharma SA, priority 2015, dated 2019).

Tests used:
[1] = tested on: Mouse Model of Acute Myocardial Infarction Injury; experiment: Mouse ischemia-reperfusion model, mono-, double and triple therapies, infarct size (Example 5); type: in vivo, C57BL/6 mice; details: for IF/AAR: mean ± SEM
Procedure: The test/control articles were given intravenously, under general anaesthesia, in order to mimic the expected route of administration in the clinical setting of acute myocardial infarction and primary percutaneous coronary intervention.
The study followed a predetermined placebo controlled design. […] In all cases, treatments (intravenous bolus administration of saline or test articles or their combinations) were performed 20 min after the onset of ischemia (10 min before the initiation of reperfusion). The experiments were terminated 2 h post-reperfusion (end of study); irreversible myocardial injury (infarct size by histomorphometry) at this time-point was evaluated, and was the primary-end-point of the study.
Mice were anaesthetized by intraperitoneal injection (0.01 ml/Kg) with a combination of ketamine, xylazine and atropine (final doses of ketamine, xylazine and atropine were 100, 20 and 0.6 mg/Kg, respectively). Anaesthetic depth was evaluated by loss of pedal reflex to toe-pinch stimulus and breathing rate. A tracheotomy was performed for artificial respiration at 120-150 breaths/min and positive end-expiratory pressure 2.0 (0.2 ml of total tidal volume; Flexivent rodent ventilator, Scireq, Montreal, ON, Canada). A thoracotomy was then performed between the fourth and fifth ribs and the pericardium carefully retracted to visualize the left anterior descending (LAD), which was ligated using an 8-0 prolene monofilament polypropylene suture placed 1 mm below the tip of the left auricle. […] After the ischemic period, the ligature was released allowing reperfusion of myocardium. Throughout experiments, body temperature was maintained at 37±0.5° C. by way of a heating pad and monitored via a thermocouple inserted rectally.
After reperfusion, animals were sacrificed with an intraperitoneal injection of the ketamine (200 mg/Kg) and xylazine (50 mg/Kg) anesthetic mixture (0.02 ml/Kg) hearts were rapidly excited from mice and directly cannulated and washed with 2.5 ml of saline heparin 1% for blood removal. Five ml of 1% TTC phosphate buffer 37° C. were infused into the coronary circulation; the tissue was incubated for 5 min in the same buffer. Evans Blue 1% diluted in distilled water (2.5 ml) was the infused into the heart. Hearts were kept at −20° C. for 24 hours and then sliced in 1 mm sections parallel to the atrioventricular groove, and then fixed in 4% formalin overnight. […] The areas of myocardial tissue at risk and infarcted were automatically transformed into volumes. Infarct and risk area volumes were expressed in cm^3. For each slide, the AAR was expressed as a percentage of the LV area (AAR/LV), and the IF was expressed as a percentage of the AAR (IF/AAR). In all cases, quantitative histomorphometry was performed by personnel blinded to the treatment assignment/study-design.
All results are presented as mean+SEM. Comparisons of numeric variables among the groups were analyzed using an one-way analysis of variance (ANOVA) model with Bonferroni correction and with Tukey post hoc analysis. […] A calculated P-value of less than 0.05 was considered to be statistically significant.

[2] = tested on: Rabbit Model of Acute Myocardial Infarction Injury; experiment: Rabbit ischemia-reperfusion model, exenatide and potassium canrenoate, infarct size (Example 3); type: in vivo, New Zealand White rabbits; details: for IF/AAR: mean ± SEM, exenatide 0.15 μg/Kg and/or P. canrenoate 1 mg/Kg IV bolus 15 min before reperfusion, 30 min ischemia, 180 min reperfusion
[3] = exenatide 0.05 μg/Kg, cyclosporine 0.15 mg/Kg, P. canrenoate 1 mg/Kg, alone or in double/triple combination
[4] = monotherapy doses: exenatide 0.001 μg/Kg, cyclosporine 0.001 mg/Kg, P. canrenoate 0.03 mg/Kg
[5] = monotherapy doses: exenatide 0.005 μg/Kg, cyclosporine 0.01 mg/Kg, P. canrenoate 0.3 mg/Kg
[6] = monotherapy doses: exenatide 0.15 μg/Kg, cyclosporine 0.5 mg/Kg, P. canrenoate 10 mg/Kg

## C[C@]12CCC(=O)C=C1C=C[C@@H]1[C@@H]2CC[C@@]2(C)[C@H]1CC[C@@]2(O)CCC(=O)[O-].[K+] [P. CANRENOATE, potassium 3-[(8R,9S,10R,13S,14S,17R)-17-hydroxy-10,13-dimethyl-3-oxo-2,8,9,11,12,14,15,16 octahydro-1H-cyclopenta[a]phenanthren-17-yl]propanoate]
[1]; compared with the control group, exenatide 0.05 μg/kg, cyclosporine 0.15 mg/kg, potassium canrenoate 1 mg/kg, alone or combined
  reduction of infarct size / extent of infarct: 30%
[1]; compared with the control group, potassium canrenoate 10 mg/kg monotherapy
  reduction of infarct size: 58.9%
[1]; [3]
  Different (%) in IF/AAR from Control: −30%
  IF/AAR: 33.2 ± 2.4%
[1]; exenatide 0.05 μg/Kg, cyclosporine 0.15 mg/Kg, P. canrenoate 1 mg/Kg, alone or in double/triple combination, listed as potassium canrenoate
  IF/AAR: 33.2±2.4%
[1]; [4]
  IF/AAR: 46 ± 2.5%
  Different (%) in IF/AAR from Control: −3%
[1]; [5]
  IF/AAR: 44 ± 3.2%
  Different (%) in IF/AAR from Control: −7.2%
[1]; [6]
  IF/AAR: 19.5 ± 2.5%
  Different (%) in IF/AAR from Control: −58.9%
[1]; monotherapy doses: exenatide 0.15 μg/Kg, cyclosporine 0.5 mg/Kg, P. canrenoate 10 mg/Kg, listed as potassium canrenoate
  IF/AAR: 19.5±2.5%
[2]; compared with the control group, exenatide 0.15 μg/Kg and/or potassium canrenoate 1 mg/Kg
  reduction of the extent of infarct: 30.5%
[2]; exenatide 0.15 μg/Kg and/or P. canrenoate 1 mg/Kg
  Different (%) in IF/AAR from Control: −30.5%
[2]
  IF/AAR: 34.36 ± 2.83%
[2]; listed as potassium canrenoate
  IF/AAR: 34.36±2.83%
